In paper PMC3672070, “Novel birch pollen specific immunotherapy formulation based on contiguous overlapping peptides” (Clinical and Translational Allergy, 2013):
Read-outs that look alike come from different tables or passages of the source. Ends that are not written are not given here.

B1: T5: Bet v 1-derived synthetic contiguous overlapping peptide, aa 65-160 (peptide, UniProt P15494 65-160, looked up, fragment)
chain: FKYVKDRVDEVDHTNFKYNYSVIEGGPIGDTLEKISNEIKIVATPDGGSILKISNKYHTKGDHEVKAEQVKASKEMGETLLRAVESYLLAHSDAYN
B2: rBet v 1: recombinant major birch pollen allergen Bet v 1 (BIOMAY, Vienna, Austria) (protein, UniProt P15494 2-160, looked up)
Major pollen allergen Bet v …: GVFNYETETTSVIPAARLFKAFILDGDNLFPKVAPQAISSVENIEGNGGPGTIKKISFPEGFPFKYVKDRVDEVDHTNFKYNYSVIEGGPIGDTLEKISNEIKIVATPDGGSILKISNKYHTKGDHEVKAEQVKASKEMGETLLRAVESYLLAHSDAYN

Experiments:
[1] = system: rBet v 1 specific IgE in sera from birch pollen allergic patients; experiment: Competition ELISA for rBet v 1 specific human IgE; details: read-out: EC50, inhibition of serum IgE binding to rBet v 1; sera from 6 birch pollen allergic patients (1:5 to 1:10) incubated 1 h with tenfold dilutions of competitor starting at 10^-5 M; rBet v 1 coated plates; '>' = no competitive activity up to this concentration
Method: Successively and with washings between steps, plates were incubated 1 h at RT with biotinylated mouse anti-huIgE (Pharmingen, 5 μg/ml, 1 h at RT), Streptavidin-HRP or -alkaline phosphatase (BD, 1:1000 or 1:8000, respectively, 30 min at RT) and TMB (BD OptEIA, ) or 4-NPP. OD were read at 450 nm, 630 nm and 405 nm, respectively. Inhibition of IgE binding to Betv 1 was calculated as: (OD with competitor minus ODmin)/(OD without competitor minus ODmin) × 100, where ODmin was determined in wells without serum.

[2] = system: volunteers allergic to birch pollen; experiment: Skin prick testing of birch pollen sensitive volunteers (AN002 phase I clinical trial); details: 20 volunteers; for skin prick test positive reactions: even at a 10 μM concentration
Method: (§1) The AN002 phase I clinical trial was a single center, open and controlled study conducted at the Centre Hospitalier Universitaire Vaudois (CHUV) in Lausanne. Volunteers (18–45 years) with at least one season history of birch pollen rhinoconjunctivitis or asthma were recruited outside of the birch pollen season. […] The primary objective of the study was to determine the reactogenicity of selected COPs by skin prick tests.
(§2) Individual T1 to T5 COPs, AllerT and T4-T5 mix were evaluated in vivo by skin prick tests following EAACI guidelines [31].

[3] = system: volunteers allergic to birch pollen; details: human, in vivo
Method: as §1, §2

[4] = system: RBL703/21 cells (RBL transfected with human FcϵRI); experiment: Degranulation assay (beta-hexosaminidase release) on humanised basophil cell line RBL703/21; format: cell-based, rat; details: RBL703/21 incubated overnight with sera from ten patients (ImmunoCAP classes 4 to 6); 1 h 37°C
Method: The assay was adapted from Ladics et al. and Blanc et al.. RBL cells transfected with human FcϵRI (RBL703/21, kind gift of Dr L. Vogel, Paul-Ehrlich Institute, Germany) were plated at 10^5 cells/well in medium (MEM containing glutamine and penicillin/streptomycin) and incubated overnight with sera from subjects with class 4, 5 and 6 IgE levels to birch pollen extract as determined by ImmunoCAP (Phadia, Uppsala, Sweden). Human serum was diluted 1/2 with 4M glucose and incubated for 45 min at 56°C, centrifuged and diluted 1/5 with MEM medium before addition to RBL703/21 cells. […] Supernatants (30 μl) were incubated in duplicates with 50 μl of substrate solution (1.3 mg/ml p-nitrophenyl-b-D-2-acetamido-2-deoxyglucopyranozide from Sigma in 0.1 M citrate pH 4.5) for 1 hour at 37°C. Reaction was stopped by the addition of 100 μl of 0.2 M glycin (pH 10.7). OD was measured at 405 nm (reference filter at 620 nm). β-hexosaminidase release was calculated using the following formula: (OD sample-ODbuffer) / (ODanti-IgE-ODbuffer) × 100.

RBL-2H3 cells = experiment: Degranulation assay (beta-hexosaminidase release) on rat basophil line RBL-2H3 loaded with sera from rBet v 1-sensitized mice; format: cell-based
Method: Degranulation assay was performed as previously described. RBL-2H3 cells were plated in 96-well tissue culture plates (4×10^4 cells/well) overnight. Passive sensitization of RBL-2H3 cells was carried out with sera from rBet v 1-sensitized mice at a final dilution of 1:30 for 2 h. Unbound antibodies were removed by washing the cell layer twice in Hanks’ balanced salt solution (Sigma-Aldrich, St-Louis, MO, USA). […] The reaction was stopped by addition of 100 μl glycine buffer (0.2M glycine, 0.2M NaCl, pH 10.7) and optical densities (OD) measured at 405 nm.

[5] = dilution 1:1 of the concentration given (COPs and mixes 10 μM, rBet v 1 1 μM, birch 100’000 SQ), EAACI guidelines
[6] = dilution 1:100 of the concentration given
[7] = dilution 1:1 of the concentration given in the row (10 μM)

| Molecule | EC50 [1] | Positive skin reactions (≥3 mm wheal and flare present), number of volunteers [2, 5] | 0 mm <Skin reaction < 3 mm (sub-threshold), number of volunteers ([2]; dilution 1:10) | Positive skin reactions (≥3 mm wheal and flare present), number of volunteers ([2]; dilution 1:10) | 0 mm <Skin reaction < 3 mm (sub-threshold), number of volunteers [2, 6] | Positive skin reactions (≥3 mm wheal and flare present), number of volunteers [2, 6] | skin prick test positive reactions [2] | Positive skin reactions (≥3 mm wheal and flare present), number of volunteers [3] | 0 mm <Skin reaction < 3 mm (sub-threshold), number of volunteers [2, 7] | dose at which maximal degranulation response was reached [4] | positive skin prick reactions, share of patients ([2]; allergen concentration lowered by 10 fold (birch 10’000 SQ, rBet v 1 0.1 μM)) | optimal rBet v 1 concentration for hexosaminidase release (RBL-2H3 cells; RBL-2H3 loaded with sera from rBet v 1-sensitized mice, serial concentrations) | hexosaminidase release (RBL-2H3 cells; RBL-2H3 primed with sera from Bet v 1-sensitized mice (1:30), stimulation 1 h 37°C, COPs and AllerT at 5.7 nM (n=10) and 57 nM (n=3), OD 405 nm) |
| --- | --- | --- | --- | --- | --- | --- | --- | --- | --- | --- | --- | --- | --- |
| GVFNYETETTSVIPAARLFKAFILDGDNLFPKVAPQAISSVENIEGNGG [T1] | > 10 µM | 0 | 0 | 0 | 0 | 0 | unable to elicit skin prick test positive reactions | – | – | – | – | – | – |
| VATPDGGSILKISNKYHTKGDHEVKAEQVKASKEMGETLLRAVESYLLAHSDAYN [T3] | > 10 µM | – | – | – | – | – | – | 0 | – | – | – | – | – |
| NGGPGTIKKISFPEGFPFKYVKDRVDEVDHTNFKYNYSVIEGGPIGDTLEKISNEIKIVATPDGGSILKIS [T2] | > 10 µM | 0 | 0 | 0 | 0 | 0 | unable to elicit skin prick test positive reactions | – | 0 | – | – | – | – |
| GVFNYETETTSVIPAARLFKAFILDGDNLFPKVAPQAISSVENIEGNGGPGTIKKISFPEGFPFKYVKDRVDEVDHTNFKYNYS [T4] | > 10 µM | 0 | 0 | 0 | 1 | 0 | – | – | 0 | – | – | – | – |
| B1 | > 10 µM | 0 | 0 | 0 | 0 | 0 | – | – | – | – | – | – | – |
| B2 | – | – | – | 16 | – | 2 | – | – | – | 10^-9 M | 80% | 0.57 nM | accumulated significantly |
